Test results reported in US20020177168A1, “Chemical sensor and method of detecting chemicals” (priority 2000, published 2002).

Key:
OBP-del = target: T1, OBP-del (Bos taurus, UniProt P07435); assay: Time variation of peaks of tryptophane difference fluorescence spectra, OBP-del; assay type: binding, bovine; conditions: during bonding reaction, 0 to 60 minutes
T1 construct: made in house
T1 sequence (P07435 1-148): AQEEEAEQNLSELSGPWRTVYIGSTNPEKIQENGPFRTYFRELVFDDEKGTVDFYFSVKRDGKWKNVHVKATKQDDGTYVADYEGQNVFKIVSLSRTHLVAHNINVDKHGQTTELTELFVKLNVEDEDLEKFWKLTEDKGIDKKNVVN
Description: (§1) Then, time variations of peaks of fluorescence spectra of tryptophane in central pockets CP bonded with odorants were investigated as to DMO and geraniol employed as odorants.
(§2) When tryptophane is in OBPb, the peak wavelength of the fluorescence spectrum of tryptophane is 345 nm. In general, the fluorescence wavelength of tryptophane shifts to a longer wavelength in hydrophilic environment, and shifts to a shorter wavelength in hydrophobic environment. At this point, a fluorescence spectrum upon bonding with an odorant was measured for calculating difference between the same and a spectrum at 0 minutes and investigating the relation between the peak intensity and the elapsed time.
(§3) The difference spectrum was calculated by subtracting the fluorescence spectrum at each time from the fluorescence spectrum at 0 minutes. When a peak of the fluorescence spectrum at a certain time shifts to a shorter wavelength beyond 345 nm (i.e., rendered hydrophobic), therefore, it follows that the peak of the difference spectrum shifts to a longer wavelength beyond 345 nm to the contrary.

OBPb [1] = target: T2, OBPb (Bos taurus, UniProt P07435); assay: Dissociation constant KD of odorant for OBPb; assay type: binding, bovine; conditions: affinity of odorant for OBPb
T2 sequence (P07435 1-159): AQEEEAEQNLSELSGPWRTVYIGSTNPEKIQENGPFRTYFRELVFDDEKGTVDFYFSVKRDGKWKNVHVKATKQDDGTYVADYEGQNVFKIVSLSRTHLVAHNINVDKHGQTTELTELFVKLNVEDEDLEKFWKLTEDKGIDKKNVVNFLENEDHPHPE

[2] = target: T3, OBPb-del (OBPb with Phe 149 up to Glu 159 deleted) (Bos taurus, UniProt P07435); assay: Relative tryptophane fluorescence intensity change after DMO addition, OBP-del; assay type: binding, bovine; conditions: DMO 10 μM, OBPb 250 nM, 25 degrees, ex 295 nm, em 340 nm
T3 construct: made in house
T3 sequence (P07435 1-148): T1 sequence (P07435 1-148)
Procedure: (§4) OBPb-norm shown in FIG. 7(a) is normal (unvaried) OBPb. OBPb-del shown in FIG. 7(b) is OBPb obtained by deleting Phe (phenylalanine) 149 up to Glu (glutamic acid) 159.
(§5) As to the OBPb-norm and the OBP-del, the relation between post-addition elapsed times and change of relative fluorescence intensity was investigated by adding dimethyl octanol (DMO) employed as an odorant to OBPb solutions.
(§6) The concentration of OBPb in PBS was set to 250 nM, and the concentration of a DMO solution was set to 10 μM. The DMO solution was added to the OBPb solution, which in turn was thereafter incubated at 25 degrees, for taking out part at each time and measuring fluorescence (excitation wavelength: 295 nm, fluorescence wavelength: 340 nm) of tryptophane present in the central pocket CP.
(§7) The difference in relative fluorescence intensity was calculated by dividing the difference between fluorescence intensity at a time 0 and fluorescence intensity at each time by the fluorescence intensity at the time 0.

OBPb-norm (normal OBPb) = target: T4, OBPb-norm (normal OBPb) (Bos taurus, UniProt P07435); assay: Relative tryptophane fluorescence intensity change after DMO addition, OBPb-norm; assay type: binding, bovine; conditions: DMO 10 μM, OBPb 250 nM, 25 degrees, ex 295 nm, em 340 nm
T4 sequence (P07435 1-159): T2 sequence (P07435 1-159)
Procedure: as §4, §5, §6, §7

[3] = target: T5, bovine derivation odorant binding protein (OBPb) (Bos taurus, UniProt P07435); assay: Fluorometry of OBPb with DMO and BPA at different concentrations (Inventive Example 2); conditions: for attenuation of fluorescence intensity versus concentration: 10^−9 to 10^−6 M
T5 sequence (P07435 1-159): T2 sequence (P07435 1-159)
Procedure: In preparation of the OBPb solution employed for Inventive Example 2, an OBPb solution of 250 nM in concentration was prepared by a method similar to that in Inventive Example 1.
In preparation of the DMO solutions and the BPA solutions employed for Inventive Example 2, on the other hand, two types of odorants of DMO and BPA were dissolved in ethanol (EtOH) respectively, for preparing a solution of 10^−2 M in concentration as to each odorant. Further, the DMO solution and the BPA solution of 10^−2 M in concentration prepared in the aforementioned manner were diluted with EtOH respectively, thereby preparing solutions of 10^−3 M, 10^−4 M, 10^−5 M and 10^−6 M in concentration respectively. Thus, DMO solutions and BPA solutions of 10^−3 M, 10^−4 M, 10^−5 M and 10^−6 M in concentration were prepared.
300 μl of the OBPb solution of 250 nM in concentration and 0.3 μl of each of the DMO solutions of 10^−3 M, 10^−4 M, 10^−5 M and 10^−6 M in concentration prepared in the aforementioned manner were mixed with each other thereby preparing sample solutions having final DMO concentrations of 10^−9 M, 10^−8 M, 10^−7 M and 10^−6 M respectively. Sample solutions having final concentrations of 10^−9 M, 10^−8 M, 10^−7 M and 10^−6 M respectively were prepared also as to BPA by a preparation method similar to that for the case of DMO.
After preparing the sample solutions in the aforementioned manner, the fluorescence intensity was measured as to each sample solution by a method similar to that in Inventive Example 1. Further, the relation between the concentrations and the fluorescence intensity of DMO and BPA was investigated on the basis of results at a point after a lapse of 20 minutes from initiation of measurement and at a point after a lapse of 30 minutes from initiation of measurement among results obtained by measuring the fluorescence intensity.
Also in this case, the point of initiation of measurement was set to the point of an elapsed time of 0 minutes while setting the fluorescence intensity at this point to 100% as a reference value for calculating a relative value of the fluorescence intensity at each point on the basis of this reference value.

OBPb bonded with AMA = target: T6, OBPb bonded with AMA (Bos taurus, UniProt P07435); assay: Substitution of AMA bonded to OBPb by other odorants (AMA and tyrosine fluorescence); assay type: binding, bovine; conditions: for fluorescence intensity of tyrosine on adding the odorant: ex 250 nm, em 300 nm, immediately after addition (0 minutes); for fluorescence intensity of AMA / dissociation of AMA from OBPb on adding the odorant: ex 295 nm, em 481 nm, 0 minutes
T6 sequence (P07435 1-159): T2 sequence (P07435 1-159)
Procedure: Further, investigation was made as to how an odorant once bonded to OBPb behaves when other odorants are thereafter bonded. Aminoanthracene (AMA) which is a fluorescent odorant was employed as a previously bonded odorant, and DMO and geraniol were used as odorants added to the AMA bond.
(§8) An OBPb solution of 10 μM in concentration was prepared. AMA, DMO and geraniol were dissolved in ethanol respectively, for preparing an AMA solution, a DMO solution and a geraniol solution of 10^−2 M in concentration.
First, 0.1 μl of an AMA solution was added to 100 μl of an OBPb solution, and left to stand at 25° C. for one hour for bonding AMA to OBPb. Phosphate buffer saline (PBS) was added to this solution up to 4 ml (diluted to 40 times), 4 μl of ethanol, DMO or geraniol was added and thereafter parts of 300 μl were taken out after lapses of 0, 5, 10, 15, 20, 25, 30, 40 and 60 minutes for measuring fluorescence intensity of AMA (excitation wavelength: 295 nm, measurement wavelength: 481 nm) and fluorescence intensity of […].
In measurement of the fluorescence intensity of tyrosine, the excitation wavelength is 250 nm, and the measurement wavelength is 300 nm. Tyrosine is present in an internal cavity of a monomer of OBPb. Therefore, dissociation of the odorant from the internal cavity IC can be measured by change of the fluorescence intensity of tyrosine (the fluorescence reduces when tyrosine becomes hydrophilic).

[4] = target: T5, bovine derivation odorant binding protein (OBPb); assay: Fluorometry of tryptophane fluorescence of OBPb with four odorants (Inventive Example 1); conditions: for affinity for the OBPb (relative, among the four odorants): FIG. 4(b); for reduction of the fluorescence intensity: odorant 10 μM, OBPb 250 nM, excitation 280 nm, fluorescence 340 nm, among the four odorants, FIG. 4(b) at 10 minutes
Procedure: In order to prepare the OBPb solution employed for Inventive Example 1, bovine derivation odorant binding protein (OBPb) was first dissolved in a phosphate buffer (PBS; phosphate buffered saline), and PBS was further added to this OBPb solution for diluting the same until the concentration of the solution reached 250 nM.
In order to prepare the odorant solution employed for Inventive Example 1, four types of odorants, i.e., dimethyl octanol (DMO), citronellal, citronellol and geraniol were dissolved in ethanol solutions (EtOH) respectively, for preparing an odorant solution of 10^−2 M in concentration as to each odorant.
300 μl of the OBPb solution of 250 nM in concentration and 0.3 μl of each odorant solution of 10^−2 M in concentration prepared in the aforementioned manner were mixed with each other for preparing a sample solution employed for measuring fluorescence intensity as to each of the four types of odorants. In this case, the final concentration of the odorant in each sample solution is 10 μM. A sample of only OBPb containing no odorant, i.e., that obtained by mixing an OBPb solution and an ethanol solution with each other, was also prepared as a comparative sample.
Each sample solution prepared in the aforementioned manner was introduced into a quartz cell for fluorescence while sealing an opening for preventing evaporation. The aforementioned cell was set in a cell holder of a fluorometer (F-4000 by Hitachi, Ltd.) and left to stand for 10 minutes for temperature balancing.
In measurement of the fluorescence intensity of each sample solution, a shutter of the fluorometer was first opened for irradiating the sample solution with light of 280 nm in wavelength from a slit of 10 nm in width and exciting tryptophane constituting the OBPb contained in the sample solution. Fluorescence of 340 nm in wavelength obtained from the tryptophane excited in this manner was taken out through the slit of 10 nm in width, for measuring the intensity of the obtained fluorescence.
In this case, the switching time for the shutter of the fluorometer was set to two seconds for opening/closing the shutter at intervals of five minutes and measuring the fluorescence intensity of the sample solution over 30 minutes.
Referring to FIG. 4, the point of initiation of measurement is set to the point of the elapsed time of 0 minutes, and the fluorescence intensity of the sample solution at this point is set to 100%. Thus, the fluorescence intensity at the elapsed time of 0 minutes, i.e., the point of initiation of measurement was set to 100% as to each sample solution for regarding this as a reference value and calculating a relative value of the fluorescence at each point every five minutes on the basis of this reference value.

[5] = target: T7, OBPb-norm central pocket CP (Bos taurus, UniProt P07435); assay: Time variation of peaks of tryptophane difference fluorescence spectra, OBPb-norm; assay type: binding, bovine; conditions: 0 to 60 minutes after addition
T7 sequence (P07435 1-159): T2 sequence (P07435 1-159)
Description: as §1, §2, §3

OBPb [6] = target: T2, OBPb; assay: Time variation of tryptophane and AMA fluorescence upon addition of AMA to OBPb; assay type: binding, bovine; conditions: ex 295 nm
Procedure: as §8
Then, time variations of fluorescence from AMA and fluorescence from tryptophane upon addition of AMA were measured. FIG. 13 illustrates results of measurement of fluorescence intensity change of tryptophane bonded with AMA. The excitation wavelength for tryptophane is 295 nm, and the fluorescence wavelength is 340 nm. FIG. 14 illustrates results of measurement of fluorescence intensity change of AMA bonded with […]. The excitation wavelength for AMA is 295 nm, and the fluorescence wavelength is 480 nm. Referring to FIGS. 13 and 14, the horizontal axes show post-addition elapsed times, and the vertical axis show relative fluorescence intensity difference levels. The relative fluorescence intensity difference was calculated by dividing the difference between fluorescence intensity at a time 0 and fluorescence intensity at each time by the fluorescence intensity at the time 0.

| Structure (SMILES) | peak wavelengths of the difference spectra of tryptophane (OBP-del) | Kd (OBPb [1]) | relative fluorescence intensity change of tryptophane with time [2] | relative fluorescence intensity change of tryptophane with time (OBPb-norm (normal OBPb)) | attenuation of fluorescence intensity versus concentration ([3]; after 20 and 30 minutes) | range in which discrimination based on the fluorescence intensity is possible ([3]; after 20 and 30 minutes) | range in which discrimination based on the fluorescence intensity is possible ([3]; conversion of 10^−9 M) | fluorescence intensity of tyrosine on adding the odorant (OBPb bonded with AMA) | fluorescence intensity of AMA / dissociation of AMA from OBPb on adding the odorant (OBPb bonded with AMA) | affinity for the OBPb (relative, among the four odorants) [4] | reduction of the fluorescence intensity [4] | bonding to the central pocket CP (from peak wavelengths of difference spectra) [5] | fluorescence intensity of tryptophane after addition of AMA (OBPb [6]; em 340 nm) | fluorescence intensity of AMA after addition of AMA (OBPb [6]; em 480 nm) |
| --- | --- | --- | --- | --- | --- | --- | --- | --- | --- | --- | --- | --- | --- | --- |
| CC(C)CCCC(C)CCO (stereo not shown) [DMO] | remained unchanged | ~300 nM | no variation with presence/absence of the odorant | rises with time | attenuation of the fluorescence intensity is reduced as the concentration of DMO or BPA is increased | 10^−9 M | about 200 ppt | No change of the fluorescence intensity was observed | AMA dissociates immediately after addition | highest affinity | at the minimum | dissociates after being bonded to the central pocket CP | – | – |
| Nc1cccc2cc3ccccc3cc12 [AMA, Aminoanthracene] | – | ~1300 nM | – | – | – | – | – | – | – | – | – | – | temporarily reduces after addition of AMA and thereafter increases | increases after addition of AMA, takes a constant value and thereafter reduces |
| CC(C)=CCC/C(C)=C/CO [geraniol] | remained unchanged | ~3000 nM | – | – | – | – | – | reduction of the fluorescence intensity was observed | AMA dissociates immediately after addition | lowest affinity | at the maximum | remains bonded to the central pocket CP | – | – |
| CC(C)(c1ccc(O)cc1)c1ccc(O)cc1 [BPA, bisphenol A] | – | – | – | – | attenuation of the fluorescence intensity is reduced as the concentration of DMO or BPA is increased | 10^−9 M | about 200 ppt | – | – | – | – | – | – | – |
